# Measurements taken from ChEMBL document CHEMBL1201862, “PubChem BioAssay data set” (2004).
#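 Following 48 hours of exposure in 96-well plates, responses at five concentrations were used to interpolate endpoints linearly. Abbreviation: GI50, concentration required for 50% inhibition of growth.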 The source made the active and inactive calls. Rule as the data show it: active = GI50 up to about 1.1 µM and inactive = higher.
# Key:
# Experiment in all cases: growth of human tumour cells (NCI), 48 h
# [1] = test system: MDA-MB-435
# [2] = test system: NCI-H23
# [3] = test system: UACC-257
# [4] = test system: SNB-19
# [5] = test system: BT-549
# [6] = test system: SR
# [7] = test system: SF-268
# [8] = test system: ACHN
# [9] = test system: OVCAR-3
# [10] = test system: RXF 393
# [11] = test system: SK-MEL-28
# [12] = test system: SK-MEL-5
# [13] = test system: K562
# [14] = test system: CAKI-1
# [15] = test system: UO-31
# [16] = test system: SK-MEL-2
# [17] = test system: A498
# [18] = test system: TK-10
# [19] = test system: MDA-N
# [20] = test system: PC-3
# [21] = test system: SF-295
# [22] = test system: IGROV-1
# [23] = test system: SNB-75
# [24] = test system: HT-29
# [25] = test system: LOX IMVI
# [26] = test system: MCF7
# [27] = test system: U-251
# [28] = test system: UACC-62
# [29] = test system: OVCAR-4
# [30] = test system: MOLT-4
# [31] = test system: NCI-H522
# [32] = test system: T47D
# [33] = test system: OVCAR-8
# [34] = test system: RPMI-8226
# [35] = test system: HCC 2998
# [36] = test system: HCT-116
# [37] = test system: SW-620
# [38] = test system: NCI-H226
# [39] = test system: DU-145
# [40] = test system: NCI/ADR-RES
# [41] = test system: COLO 205
# [42] = test system: EKVX
# [43] = test system: Malme-3M
# [44] = test system: MDA-MB-231
# [45] = test system: HL-60
# [46] = test system: KM12
# [47] = test system: OVCAR-5
# [48] = test system: SN12C
# [49] = test system: HCT-15
# [50] = test system: A549
# [51] = test system: M14
# [52] = test system: 786-0
# [53] = test system: CCRF-CEM
# [54] = test system: HOP-62
# [55] = test system: NCI-H460
compound,measurement,setting,value
N#Cc1c(NC(=S)Nc2ccc(Cl)cc2)sc2c1CCCC2,GI50,[1],> 100 µM (inactive)
same,GI50,[2],> 100 µM (inactive)
same,GI50,[3],> 100 µM (inactive)
same,GI50,[4],> 100 µM (inactive)
same,GI50,[5],> 100 µM (inactive)
same,GI50,[6],25.1 µM (inactive)
same,GI50,[7],> 100 µM (inactive)
same,GI50,[8],> 100 µM (inactive)
same,GI50,[9],> 100 µM (inactive)
same,GI50,[10],> 100 µM (inactive)
same,GI50,[11],> 100 µM (inactive)
same,GI50,[12],> 100 µM (inactive)
same,GI50,[13],29.4 µM (inactive)
same,GI50,[14],> 100 µM (inactive)
same,GI50,[15],> 100 µM (inactive)
same,GI50,[16],> 100 µM (inactive)
same,GI50,[17],> 100 µM (inactive)
same,GI50,[18],> 100 µM (inactive)
same,GI50,[19],> 100 µM (inactive)
same,GI50,[20],> 100 µM (inactive)
same,GI50,[21],> 100 µM (inactive)
same,GI50,[22],> 100 µM (inactive)
same,GI50,[23],> 100 µM (inactive)
same,GI50,[24],> 100 µM (inactive)
same,GI50,[25],> 100 µM (inactive)
same,GI50,[26],> 100 µM (inactive)
same,GI50,[27],> 100 µM (inactive)
same,GI50,[28],> 100 µM (inactive)
same,GI50,[29],5.16 µM (inactive)
same,GI50,[30],16.6 µM (inactive)
same,GI50,[31],25.8 µM (inactive)
same,GI50,[32],> 100 µM (inactive)
same,GI50,[33],14.8 µM (inactive)
same,GI50,[34],24.2 µM (inactive)
same,GI50,[35],64.1 µM (inactive)
same,GI50,[36],> 100 µM (inactive)
same,GI50,[37],> 100 µM (inactive)
same,GI50,[38],> 100 µM (inactive)
same,GI50,[39],> 100 µM (inactive)
same,GI50,[40],65.3 µM (inactive)
same,GI50,[41],> 100 µM (inactive)
same,GI50,[42],3.83 µM (inactive)
same,GI50,[43],41.2 µM (inactive)
same,GI50,[44],3.54 µM (inactive)
same,GI50,[45],34.8 µM (inactive)
same,GI50,[46],> 100 µM (inactive)
same,GI50,[47],> 100 µM (inactive)
same,GI50,[48],3.37 µM (inactive)
same,GI50,[49],> 100 µM
O=C(/N=N/c1ccc(Cl)cc1Cl)NNc1ccc(Cl)cc1Cl,GI50,[50],18.2 µM (inactive)
same,GI50,[1],16.1 µM (inactive)
same,GI50,[2],17.1 µM (inactive)
same,GI50,[3],19.6 µM (inactive)
same,GI50,[4],28.6 µM (inactive)
same,GI50,[5],14.8 µM (inactive)
same,GI50,[6],23.2 µM (inactive)
same,GI50,[7],30.1 µM (inactive)
same,GI50,[8],16.6 µM (inactive)
same,GI50,[9],15.9 µM (inactive)
same,GI50,[11],20.7 µM (inactive)
same,GI50,[12],14.9 µM (inactive)
same,GI50,[51],> 10 µM (inactive)
same,GI50,[13],20.8 µM (inactive)
same,GI50,[14],19.6 µM (inactive)
same,GI50,[15],12 µM (inactive)
same,GI50,[16],12.9 µM (inactive)
same,GI50,[17],15.7 µM (inactive)
same,GI50,[18],24.3 µM (inactive)
same,GI50,[52],15.3 µM (inactive)
same,GI50,[19],16.2 µM (inactive)
same,GI50,[20],12.2 µM (inactive)
same,GI50,[53],20.2 µM (inactive)
same,GI50,[22],27 µM (inactive)
same,GI50,[23],31.6 µM (inactive)
same,GI50,[24],37.2 µM (inactive)
same,GI50,[25],16.5 µM (inactive)
same,GI50,[27],18.5 µM (inactive)
same,GI50,[28],13.9 µM (inactive)
same,GI50,[29],13.3 µM (inactive)
same,GI50,[30],16.3 µM (inactive)
same,GI50,[54],1.75 µM (inactive)
same,GI50,[31],19.1 µM (inactive)
same,GI50,[32],21.7 µM (inactive)
same,GI50,[33],17.7 µM (inactive)
same,GI50,[34],19 µM (inactive)
same,GI50,[35],11.4 µM (inactive)
same,GI50,[36],13.9 µM (inactive)
same,GI50,[37],21.3 µM (inactive)
same,GI50,[38],19 µM (inactive)
same,GI50,[39],14.7 µM (inactive)
same,GI50,[55],16.4 µM (inactive)
same,GI50,[43],18.6 µM (inactive)
same,GI50,[44],20.7 µM (inactive)
same,GI50,[45],20.7 µM (inactive)
same,GI50,[47],19.3 µM (inactive)
same,GI50,[48],16.4 µM (inactive)
same,GI50,[49],19.6 µM
